Assay in all cases: DTP human tumour cell line panel, 48 h
Experiment [1] relates to A498 renal.
Experiment [2] relates to CAKI-1 renal.
In experiment [3] the test system is HL-60(TB) leukemia.
Experiment [4] relates to LOX IMVI melanoma.
The subject of experiment [5] is OVCAR-3 ovarian.
The test system of experiment [6] is SK-MEL-28 melanoma.
In experiment [7] the test system is SN12C renal.
For experiment [8], the system named is SW-620 colon.
Experiment [9] concerns UACC-257 melanoma.
The subject of experiment [10] is HOP-92 NSCLC.

Where “and” joins values, the source holds several entries; their conditions need not be identical. Equal values may be shown once.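 Growth conditions: 96-well plates. Treatment: test compound, 48 hours, 5 concentrations. Analysis: linear interpolation between bracketing concentrations; unreached endpoints set to highest concentration. GI50 marks 50% less growth. TGI is the concentration that stops growth completely.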 Where only a bound is given, the exact number is not on record here.

On to `CC1(C)N[P+]2(Nc3ccccc3O2)OC1=O` (configuration not stated), for which the TGI in experiment [1], in experiment [2], in [3], in [4], in experiment [5] and in experiment [6] was more than 100 µM in each case. In addition, the TGI in experiment [7], in experiment [8] and in experiment [9] was more than 100 µM in each case.

Turning to `Cc1ccc2[nH]c(C(=O)NN3C(=O)C(C)SC34CCCCC4C)c(-c3ccccc3)c2c1` (configuration not stated), the GI50 in [1] was 15 µM; in experiment [2] it was 17 µM; in experiment [10], 19.5 µM; in [4], 18.9 µM; in experiment [5], 14.4 µM; in experiment [6], 19.4 µM. Moreover, the GI50 in experiment [7] is 15.7 µM; in [8], 19.8 µM; in [9], 20.4 µM. The TGI in [1] is 32 µM; in experiment [2], 40.7 µM; in experiment [10], 38.5 µM; in experiment [4] it was 35.4 µM; in [5], 31.7 µM; in experiment [6], 38.8 µM. The TGI in experiment [7] came to 31.6 µM; in experiment [8] it was 53.2 µM; in experiment [9], 37.6 µM.

On to `CCOC(=O)C(=O)Nc1ccc(Cl)c(C(F)(F)F)c1`, for which the TGI in experiment [2], in experiment [3], in experiment [4], in experiment [5], in experiment [6] and in experiment [7] was more than 100 µM throughout. Also, the TGI in experiment [8] and in experiment [9] was more than 100 µM throughout.

For `Oc1ccc(CN(Cc2ccc(C(F)(F)F)cc2)Cc2ccc(O)c3ncccc23)c2cccnc12`, the GI50 is 0.0409 µM in [1]; 0.0428 µM in experiment [2]; 0.0239 µM in experiment [3]; 0.0381 µM in experiment [4]; 0.0319 µM in experiment [5]; 0.341 µM in experiment [6]. The GI50 in experiment [7] was 0.0201 µM; in experiment [8] it was 0.0251 µM. In addition, the TGI is 97.5 µM in experiment [1]; 15.1 µM in [4]; 60.4 µM in experiment [5]; more than 100 µM in [6]; more than 100 µM in experiment [7]; more than 100 µM in experiment [8].

For `C[Si]12OCCCN(CCO1)CCO2`, the TGI in [1], in experiment [2], in experiment [10], in experiment [5], in experiment [6] and in [7] was more than 100 µM each time. Besides, the TGI in experiment [8] and in experiment [9] was more than 100 µM throughout.

On to `COc1ccc2c(c1)CCCC1C3=NCCC3(C)CSC21` (configuration not stated), for which the TGI in [3] was 44.7 µM; in experiment [4], more than 100 µM; in experiment [5], more than 100 µM; in experiment [6] it was more than 100 µM; in [7] it was more than 100 µM; in [8], more than 100 µM.

As to `COc1ccccc1NC(=O)CC(=O)NNCC(=O)Nc1nnc(-c2ccccc2)o1`, the TGI in experiment [1], in experiment [2], in experiment [4], in [5], in experiment [6] and in experiment [7] was more than 100 µM in each case. Moreover, the TGI in [8] and in experiment [9] was more than 100 µM throughout.

Take `COc1ccc(/C=C\c2cc(OC)c(OC)c(OC)c2)cc1OCC(=O)Nc1nc2ccc(OC(F)(F)F)cc2s1`: the GI50 was 3.61 µM in experiment [1]; 4.6 µM in experiment [2]; 2.74 µM in experiment [10]; 4.77 µM in [4]; 3.37 µM in experiment [5]; 4.57 µM in experiment [6]. In addition, the GI50 in [7] is 6.42 µM; in experiment [8], 5.65 µM; in experiment [9] it was 89.2 µM. The TGI was more than 100 µM in [1]; more than 100 µM in [2]; 45.1 µM in experiment [10]; more than 100 µM in experiment [4]; 11.3 µM in [5]; more than 100 µM in [6]. The TGI in experiment [7], in experiment [8] and in experiment [9] was more than 100 µM throughout.

Turning to `CC(=O)O[C@H]1CC[C@@]2(C)C(=CC[C@@H]3C2CC[C@]2(C)Nc4[nH]ncc4CC32)C1` (some centres not stated), the TGI in experiment [1] is more than 100 µM; in experiment [2] it was more than 100 µM; in [3] it was 53.5 µM; in [5], 36.5 µM; in experiment [6] it was more than 100 µM; in experiment [8], more than 100 µM. The compound further displayed a TGI in experiment [9] of 30.8 µM.

Consider `CCCCCCCCCCCCCCCCn1cc[n+](Cc2ccccc2)c1C`, for which the GI50 in [1] was 1.69 µM and 0.421 µM; in experiment [3], 0.0496 µM; in [5], 0.178 µM and 0.175 µM; in [6], 1.7 µM and 0.246 µM; in experiment [7], 1.07 µM and 0.156 µM; in experiment [9] it was 1.27 µM. The TGI in experiment [1] was 3.94 µM and 1.8 µM; in experiment [3], 2.06 µM; in experiment [5], 0.947 µM and 0.49 µM; in experiment [6], 4.22 µM and 1.35 µM; in experiment [7] it was 2.34 µM and 1.17 µM; in experiment [9] it was 11.2 µM.

As to `CCC[CH2][Sn]1([CH2]CCC)[O]C(=O)CN=Cc2ccccc2[O]1`, the GI50 is 0.182 µM in experiment [2]; 0.182 µM in experiment [10]; 0.205 µM in experiment [4]; 0.545 µM in [5]; 0.343 µM in experiment [6]; 0.292 µM in experiment [7]. In addition, the GI50 is 0.175 µM in experiment [8] and 0.164 µM in experiment [9]. Further, the TGI was 0.631 µM in experiment [2]; 0.519 µM in experiment [10]; 0.527 µM in [4]; 1.82 µM in [5]; 1.1 µM in experiment [6]; 1.13 µM in experiment [7]. Moreover, the TGI turned out to be 0.434 µM in experiment [8] and 0.419 µM in experiment [9].

As for `COc1ccc(C2=C(c3cc(OC)c(OC)c(OC)c3)C(=O)OC2)cc1OC`, the GI50 is 0.134 µM in [1]; less than 0.01 µM in [2]; 6.65 µM in experiment [10]; 0.428 µM in experiment [4]; less than 0.0112 µM in experiment [5]; 47.6 µM in [6]. The GI50 in experiment [7] was 0.567 µM; in [8], 0.105 µM; in [9], more than 38.6 µM. In addition, the TGI was 21.3 µM in experiment [1]; 1.24 µM in experiment [2]; more than 100 µM in experiment [10]; more than 49.4 µM in [4]; less than 0.0206 µM in experiment [5]; more than 100 µM in experiment [6]. Besides, the concentration for total growth inhibition (TGI) in experiment [7] was 73.1 µM; in experiment [8], more than 100 µM; in [9], more than 81.1 µM.

Broadly, the TGI is the concentration giving total growth inhibition. A high value points to less potent growth arrest. As a reminder, the GI50 is the concentration that inhibits growth by half.

The values are drawn from PubChem BioAssay (NCI).
